For series [1], the species on record is Danio rerio. The experiment in a line: Lipid lowering activity in zebrafish embryos by Nile red fat metabolism assay. The format is functional, organism-based.
Series [2] has as its system 3T3-L1. Kind of series: Cytotoxicity against mouse 3T3L1 cells at 50 uM after 48 hrs by sulforhodamine B assay. The format is cell-based. The settings on record: 3t3-l1, 48 h.
Series [3] relates to 3T3-L1. The experiment in a line: Cytotoxicity against mouse 3T3L1 cells at 50 uM after 24 hrs by sulforhodamine B assay. Particulars: 3t3-l1, 24 h. The format is cell-based. (In general: The SRB assay estimates cell density from bound dye.)
Series [4] is filed under the species Danio rerio. The experiment in a line: Lipid lowering activity in zebrafish embryos at 5 uM by Nile red fat metabolism assay. The format is functional, organism-based.
For series [5], the species on record is Danio rerio. Kind of series: Toxicity in zebra fish larvae at 5 uM after 48 hrs. The format is organism-based. The settings on record: zebrafish, in vivo.
The species named for series [6] is Danio rerio. The experiment in a line: Downregulation of fasn mRNA expression in zebra fish larvae at lipid lowering activity EC50 after 48 hrs by RT-PCR analysis. The format is functional.
The species named for series [7] is Danio rerio. Kind of series: Toxicity in zebra fish larvae assessed as induction of malformation at 50 uM after 24 to 48 hrs. The format is organism-based. The settings on record: zebrafish, in vivo.
Series [8] is filed under the species Danio rerio. Kind of series: Lipid lowering activity in zebrafish embryos 50 uM by Nile red fat metabolism assay. The format is functional, organism-based.

Calls of active or inactive are those of the source. The calls are words filed in the database; no cut-off is given here.

These results are taken from ChEMBL document CHEMBL4152195, “Lipid reducing activity and toxicity profiles of a library of polyphenol derivatives” (Eur J Med Chem, 2018).

The term EC50 denotes the concentration at which the effect is half-maximal. The low end stands for a more potent agent, the high end for a less potent agent. Take `CC1(C)C=Cc2c(cc3c(=O)c4ccccc4oc3c2O)O1`: in the series listed under Danio rerio [1], a half-maximal effect (EC50) was put at 560 nM. The Activity in the series with 3T3-L1 [2], in the series with 3T3-L1 [3] and in the series listed under Danio rerio [5] was 0 to 25% throughout. The outcome in the series listed under Danio rerio [4] was Active.

`O=c1c2ccccc2oc2cc(O)c(O)cc12` came in with an EC50 in the series filed under Danio rerio [1] of 980 nM. Also, the Activity in the series with 3T3-L1 [2], with 3T3-L1 [3] and in the series listed under Danio rerio [5] was 0 to 25% in each case. Also, the result in the series filed under Danio rerio [4] was Active.

As to `COc1c2c(cc3c(=O)c4cc(C)ccc4oc13)CCC(C)(C)O2`, the EC50 in the series filed under Danio rerio [1] amounted to 420 nM. Further, the results for the Activity with 3T3-L1 [2], in the series on 3T3-L1 [3] and in the series listed under Danio rerio [5] were 0 to 25%, 0 to 50% and 0 to 25%, respectively. Besides, the outcome in the series listed under Danio rerio [4] was Active.

`O=c1c2ccccc2oc2cccc(O)c12` registered an EC50 in the series listed under Danio rerio [1] of 620 nM. The Activity in the series with 3T3-L1 [2], in the series on 3T3-L1 [3] and in the series filed under Danio rerio [5] was 0 to 25% in each case. Besides, in the series listed under Danio rerio [4], the outcome was Active.

Consider `O=c1c2ccccc2oc2ccc(O)cc12`, for which, in the series listed under Danio rerio [1], the EC50 was 760 nM. Also, the Activity with 3T3-L1 [2], in the series on 3T3-L1 [3] and in the series listed under Danio rerio [5] was 0 to 25% throughout. The outcome in the series listed under Danio rerio [4] was Active.

`O=c1c2ccccc2oc2ccc(O)c(O)c12` yielded an EC50 in the series listed under Danio rerio [1] of 130 nM. Further, the Activity with 3T3-L1 [2], in the series on 3T3-L1 [3] and in the series listed under Danio rerio [5] was 0 to 25% in each case. In addition, the outcome in the series filed under Danio rerio [6] was inactive. For the same compound, the outcome in the series filed under Danio rerio [4] was Active.

In the series filed under Danio rerio [1], `COc1ccc2oc3ccccc3c(=O)c2c1OC` yielded a 50% effective concentration (EC50) of 620 nM. For the same compound, the Activity in the series with 3T3-L1 [2], in the series with 3T3-L1 [3] and in the series filed under Danio rerio [5] was 0 to 25% each time. Besides, in the series listed under Danio rerio [4], the result was Active.

Regarding `CCCOc1ccc(NCC(C)C)c2c(=O)c3ccccc3sc12`, the EC50 in the series listed under Danio rerio [1] was 70 nM. Besides, the Activity with 3T3-L1 [2], in the series on 3T3-L1 [3] and in the series listed under Danio rerio [5] was 0 to 25% throughout. Also, in the series listed under Danio rerio [6], the result was inactive. The result in the series listed under Danio rerio [4] was Active.

As for `CC1(C)C=Cc2cc3c(=O)c4ccccc4oc3c(O)c2O1`, the EC50 in the series listed under Danio rerio [1] was found to be 1440 nM. In addition, the Activity in the series on 3T3-L1 [2], in the series on 3T3-L1 [3] and in the series filed under Danio rerio [5] was 0 to 25% each time. In addition, the result in the series filed under Danio rerio [4] was Active.

Regarding `CC1(C)C=Cc2cc(O)c3c(=O)c4ccccc4oc3c2O1`, in the series listed under Danio rerio [1], the EC50 was determined as 290 nM. Besides, the Activity in the series with 3T3-L1 [2], in the series with 3T3-L1 [3] and in the series filed under Danio rerio [5] was 0 to 25% in each case. For the same compound, the result in the series listed under Danio rerio [4] was Active.

As to `COc1cc2c(c3oc4ccccc4c(=O)c13)OC(C)(C)CC2`, in the series listed under Danio rerio [1], a half-maximal effect (EC50) was put at 730 nM. The Activity with 3T3-L1 [2], in the series with 3T3-L1 [3] and in the series filed under Danio rerio [5] was 0 to 25% each time. The result in the series filed under Danio rerio [4] was Active.

As to `O=c1c2cc(O)ccc2oc2cccc(O)c12`, the Activity with 3T3-L1 [2] was 0 to 25%; in the series with 3T3-L1 [3], 0 to 25%; in the series listed under Danio rerio [5], 0 to 25%; in the series filed under Danio rerio [7] it was “Toxic”.

For `COc1c2c(cc3c(=O)c4cc(Cl)ccc4oc13)OC(C)(C)CC2`, in the series listed under Danio rerio [1], a half-maximal effect (EC50) was put at 860 nM. The Activity in the series on 3T3-L1 [2], in the series with 3T3-L1 [3] and in the series listed under Danio rerio [5] was 0 to 25% in each case. In addition, the result in the series listed under Danio rerio [4] was Active.

In the series filed under Danio rerio [1], `COC(=O)COc1ccc2c(=O)c3ccc(OCC(=O)OC)cc3oc2c1` showed an EC50 of 1670 nM. Moreover, the Activity with 3T3-L1 [2], with 3T3-L1 [3] and in the series filed under Danio rerio [5] was 0 to 25% each time. For the same compound, the result in the series listed under Danio rerio [4] was Active.

`COc1ccc2c(=O)c3ccccc3oc2c1OC` gave an EC50 in the series filed under Danio rerio [1] of 360 nM. The Activity in the series on 3T3-L1 [2], with 3T3-L1 [3] and in the series filed under Danio rerio [5] was 0 to 25% in each case. Besides, the result in the series filed under Danio rerio [4] was Active.

In turn, `COc1ccc2c(=O)c3ccccc3oc2c1O` yielded an EC50 in the series listed under Danio rerio [1] of 480 nM. Besides, the Activity in the series on 3T3-L1 [2], in the series with 3T3-L1 [3] and in the series filed under Danio rerio [5] was 0 to 25% in each case. Also, in the series filed under Danio rerio [4], the result was Active.

In the series filed under Danio rerio [1], `COc1cccc2oc3ccccc3c(=O)c12` yielded an EC50 of 790 nM. Besides, the Activity in the series with 3T3-L1 [2], with 3T3-L1 [3] and in the series filed under Danio rerio [5] was 0 to 25% throughout. In addition, in the series listed under Danio rerio [4], the result was Active.

`COc1cc2oc3ccccc3c(=O)c2cc1OC` had an EC50 in the series listed under Danio rerio [1] of 280 nM. Also, the Activity with 3T3-L1 [2], in the series with 3T3-L1 [3] and in the series filed under Danio rerio [5] was 0 to 25% in each case. Moreover, the “fold change (FC)” value in the series filed under Danio rerio [6] came out at 2. For the same compound, in the series filed under Danio rerio [4], the outcome was Active.

Take `COc1c2c(cc3c(=O)c4ccccc4oc13)OC(C)(C)C=C2`: the Activity is 51 to 75% in the series with 3T3-L1 [2], 26 to 50% in the series with 3T3-L1 [3] and 0 to 25% in the series listed under Danio rerio [5]. Besides, the outcome in the series listed under Danio rerio [4] was Active.

In the series filed under Danio rerio [1], `COc1cc2oc3c(OC)c4c(cc3c(=O)c2cc1OC)CCC(C)(C)O4` displayed an EC50 of 540 nM. Further, the Activity in the series with 3T3-L1 [2], with 3T3-L1 [3] and in the series filed under Danio rerio [5] was 0 to 25% in each case. Also, the result in the series listed under Danio rerio [4] was Active.

In the series filed under Danio rerio [1], `Oc1ccc(/C=C/c2cc(O)cc(O)c2)cc1` [RESVERATROL] came in with an EC50 of 600 nM. In addition, the result in the series listed under Danio rerio [8] and in the series filed under Danio rerio [4] was Active.

Take `COc1ccc2oc3ccccc3c(=O)c2c1`: the Activity in the series on 3T3-L1 [2] was in the range of 0 to 25%; with 3T3-L1 [3], 51 to 75%; in the series listed under Danio rerio [5] it was 0 to 25%. In the series filed under Danio rerio [4], the result was Active.

For `C=Cc1cc2c(=O)c3ccccc3oc2c(OC)c1O`, the Activity is 51 to 75% in the series on 3T3-L1 [2], 0 to 25% with 3T3-L1 [3] and 0 to 25% in the series filed under Danio rerio [5]. For the same compound, the outcome in the series listed under Danio rerio [4] was Active.

Turning to `COc1cc(C=O)c2c(=O)c3ccccc3oc2c1OC`, the Activity in the series with 3T3-L1 [2] fell in the range of 51 to 75%; in the series on 3T3-L1 [3], 0 to 25%; in the series filed under Danio rerio [5] it was 0 to 25%. The outcome in the series listed under Danio rerio [4] was Active.
